Numbers after ± are expanded uncertainties.
Experiment: relative permittivity at various frequencies (dimensionless); xn = mol fraction of the nth substance listed
Settings: 303.15 K, 101 kPa, Liquid, Frequency=1 MHz, Capacitive measurement method at f=1 MHz

| relative permittivity (x2 = 0) | relative permittivity (x2 = 0.068) | relative permittivity (x2 = 0.141) | relative permittivity (x2 = 0.22) | relative permittivity (x2 = 0.305) | relative permittivity (x2 = 0.397) | relative permittivity (x2 = 0.497) | relative permittivity (x2 = 0.606) | relative permittivity (x2 = 0.725) | relative permittivity (x2 = 0.856) | SMILES |
| --- | --- | --- | --- | --- | --- | --- | --- | --- | --- | --- |
| 36.55 ± 0.22 | – | – | – | – | – | – | – | – | – | CN(C)C=O [dimethylformamide] + NCCO |
| 106.14 ± 0.64 | 97.77 ± 1.3 | 90.12 ± 1.2 | 81.77 ± 1.1 | 74.02 ± 0.98 | 66.34 ± 0.87 | 59.14 ± 0.77 | 52.04 ± 0.71 | 44.61 ± 0.66 | 36.91 ± 0.53 | NC=O [formamide] + NCCO |

Source: the NIST ThermoML archive (doi:10.1016/j.fluid.2010.02.038)
